Assay results taken from patent US20250197387A1, “BCL-XL DEGRADERS AND USES THEREOF” (Kymera Therapeutics, Inc., priority 2021, published 2025).
Like-named read-outs stand apart in the source and are kept apart here.

How the values were obtained:
[1] = tested on: MOLT-4 cells; assay: CTG (CellTiter-Glo) cell viability assay, MOLT-4; assay type: cell-based; conditions: Homo sapiens, 3 day incubation, read-out: CTG Cell Viability Assay - MOLT-4 3 day: Average external-IC50
Experimental: Compound-mediated viability effect on MOLT-4 and Caki-2 was quantitatively determined using the CellTiter-Glo® Luminescent Cell Viability Assay kit from Promega (Catalog number G7570) following manufacturer's recommended procedures. Briefly, MOLT-4 and Caki-2 cells were seeded into 384 well plates (Grenier Bio-One, Catalog number 781080) with a density of 10,000 cells per well. Compounds were then added to the assay plate with final top concentration of 10 μM and 1:3 dilution series with total of 9 doses. The final DMSO concentration is normalized to 0.2%. The assay plates were incubated at 37° C., for 3 days under 5% CO2. Then the assay plate was equilibrated at room temperature for 10 minutes. To determine cell viability, 30 uL CellTiter Glo reagent was added to each well and the assay plate was centrifuged at 1000 rpm for 30 second, incubated at room temperature for 10 min, and analyzed by detecting the luminescence using a multimode plate reader (EnVision 2105, PerkinElmer). The data was then analyzed by software Prism 7.0 from GraphPad and the dose response curves are fit using a three-parameter logistic equation to calculate IC50.
The letter codes for MOLT-4 IC50 include: A (<0.1 μM); B (0.1-1.0 μM); C (>1.0-3.0 μM); and D (>3.0 μM). The letter codes for Caki-2 IC50 include: A (<0.1 μM); B (0.1-1.0 μM); C (>1.0-10.0 μM); and D (>10.0 μM).

[2] = target: T1, BCL-XL (Homo sapiens, UniProt Q07817); assay: BCL-XL degradation assay, western blot in MOLT-4 cells, 16 h; assay type: cell-based; conditions: for DC50: read-out: Bcl-xL WB in MOLT-4 degradation 16 h: Mean external-Abs DC50
T1 construct: endogenous in cells; host or cells: MOLT-4
T1 sequence (Q07817 whole entry): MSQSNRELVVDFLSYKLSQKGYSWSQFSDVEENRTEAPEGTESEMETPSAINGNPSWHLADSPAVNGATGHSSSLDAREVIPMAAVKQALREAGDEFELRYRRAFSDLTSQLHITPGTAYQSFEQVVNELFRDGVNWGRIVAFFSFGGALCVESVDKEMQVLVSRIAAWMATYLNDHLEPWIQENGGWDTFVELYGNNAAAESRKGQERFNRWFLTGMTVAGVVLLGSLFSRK
How it was run: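 MOLT-4 cells treated with compounds at 0.02-10 μM final for 16 hr at 37° C; lysates analysed by western blot with anti-BCL-xL, beta-actin and GAPDH loading controls, infrared imaging and densitometry; DC50 and Dmax % reported as letter codes.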

[3] = western blot, MOLT-4 cells, 16 h, read-out: Bcl-xL WB in MOLT-4 degradation 16 h: Average Dmax %
[4] = western blot, MOLT-4 cells, 16 h
[5] = MOLT-4, read-out: Bcl-xL WB in MOLT-4 degradation 16 h: Average Dmax %

Row | SMILES | IC50 ([1]; MOLT-4, 72 h) [µM] | Dmax [2, 3] [%] | DC50 [2, 4] [µM] | IC50 ([1]; 72 h) [µM] | Dmax [2, 5] [%]
1 | Cc1cc([C@@H](C(=O)N2C[C@H](O)C[C@H]2C(=O)NCc2ccc(-c3scnc3C)cc2OCC(=O)N2CCN(CC[C@H](CSc3ccccc3)Nc3ccc(S(=O)(=O)NC(=O)c4ccc(N5CCN(CC6=C(c7ccc(Cl)cc7)CCC(C)(C)C6)CC5)cc4)cc3S(=O)(=O)C(F)(F)F)CC2)C(C)C)on1 [I-135] | 0.1 to 1 | > 75 | 0.01 to 0.1 | – | –
2 | Cc1ncsc1-c1ccc([C@H](CC(=O)N(C)CC(=O)N2CCN(CC[C@H](CSc3ccccc3)Nc3ccc(S(=O)(=O)NC(=O)c4ccc(N5CCN(CC6=C(c7ccc(Cl)cc7)CCC(C)(C)C6)CC5)cc4)cc3S(=O)(=O)C(F)(F)F)CC2)NC(=O)[C@@H]2C[C@@H](O)CN2C(=O)[C@@H](NC(=O)C2(F)CC2)C(C)(C)C)cc1 [I-136] | – | – | > 1 | > 3 | < 50
3 | Cc1ncsc1-c1ccc([C@@H](CC(=O)N(C)CC(=O)N2CCN(CC[C@H](CSc3ccccc3)Nc3ccc(S(=O)(=O)NC(=O)c4ccc(N5CCN(CC6=C(c7ccc(Cl)cc7)CCC(C)(C)C6)CC5)cc4)cc3S(=O)(=O)C(F)(F)F)CC2)NC(=O)[C@@H]2C[C@@H](O)CN2C(=O)[C@@H](NC(=O)C2(F)CC2)C(C)(C)C)cc1 [I-137] | – | – | 0.1 to 0.5 | 1 to 3 | > 75
4 | Cc1ncsc1-c1ccc([C@H](CC(=O)N(C)CCCC(=O)N2CCN(CC[C@H](CSc3ccccc3)Nc3ccc(S(=O)(=O)NC(=O)c4ccc(N5CCN(CC6=C(c7ccc(Cl)cc7)CCC(C)(C)C6)CC5)cc4)cc3S(=O)(=O)C(F)(F)F)CC2)NC(=O)[C@@H]2C[C@@H](O)CN2C(=O)[C@@H](NC(=O)C2(F)CC2)C(C)(C)C)cc1 [I-138] | > 3 | < 50 | > 1 | – | –
5 | Cc1ncsc1-c1ccc([C@@H](CC(=O)N(C)CCCC(=O)N2CCN(CC[C@H](CSc3ccccc3)Nc3ccc(S(=O)(=O)NC(=O)c4ccc(N5CCN(CC6=C(c7ccc(Cl)cc7)CCC(C)(C)C6)CC5)cc4)cc3S(=O)(=O)C(F)(F)F)CC2)NC(=O)[C@@H]2C[C@@H](O)CN2C(=O)[C@@H](NC(=O)C2(F)CC2)C(C)(C)C)cc1 [I-139] | 1 to 3 | > 75 | 0.1 to 0.5 | – | –
6 | Cc1ncsc1-c1ccc([C@H](C)NC(=O)[C@@H]2C[C@@H](O)CN2C(=O)[C@@H](NC(=O)CCCCCCCS(=O)(=O)NC(=O)c2nc(N3CCc4cccc(C(=O)Nc5nc6ncccc6s5)c4C3)ccc2-c2cnn(CC34CC5CC(CC(C5)C3)C4)c2C)C(C)(C)C)cc1 [I-140] | 0.1 to 1 | > 75 | < 0.01 | – | –
7 | Cc1ncsc1-c1ccc([C@H](C)NC(=O)[C@@H]2C[C@@H](O)CN2C(=O)[C@@H](NC(=O)CCCCCCCCNC(=O)c2nc(N3CCc4cccc(C(=O)Nc5nc6ccccc6s5)c4C3)ccc2-c2cnn(CC3CCOCC3)c2C)C(C)(C)C)cc1 [I-142] | > 3 | > 75 | 0.1 to 0.5 | – | –
8 | Cc1ncsc1-c1ccc([C@H](C)NC(=O)[C@@H]2C[C@@H](O)CN2C(=O)[C@@H](NC(=O)N2CCC(CN3CCC(CNC(=O)c4nc(N5CCc6cccc(C(=O)Nc7nc8ccccc8s7)c6C5)ccc4-c4cnn(CC5CCCCC5)c4C)CC3)CC2)C(C)(C)C)cc1 [I-144] | 0.1 to 1 | 50 to 75 | 0.5 to 1 | – | –
9 | Cc1ncsc1-c1ccc([C@H](C)NC(=O)[C@@H]2C[C@@H](O)CN2C(=O)[C@H](NC(=O)CCCCCCCS(=O)(=O)NC(=O)c2nc(N3CCc4cccc(C(=O)Nc5nc6ccccc6s5)c4C3)ccc2-c2cnn(C)c2C)C(C)(C)C)cc1 [I-145] | > 3 | > 75 | 0.1 to 0.5 | – | –
10 | Cc1ncsc1-c1ccc([C@H](C)NC(=O)[C@@H]2C[C@@H](O)CN2C(=O)[C@@H](NC(=O)N2CC3(CN(CCCS(=O)(=O)NC(=O)c4nc(N5CCc6cccc(C(=O)Nc7nc8ccccc8s7)c6C5)ccc4-c4cnn(CC5CCCCC5)c4C)C3)C2)C(C)(C)C)cc1 [I-151] | 1 to 3 | < 50 | 0.1 to 0.5 | – | –
11 | Cc1ncsc1-c1ccc(CNC(=O)[C@@H]2C[C@@H](O)CN2C(=O)[C@@H](c2cc(OCCCCCCCCC(=O)N(C)CC#Cc3ccc(OCCCc4ccc(N5CCc6cccc(C(=O)Nc7nc8ccccc8s7)c6C5)nc4C(=O)O)c(F)c3)no2)C(C)C)cc1 [I-171] | 1 to 3 | 50 to 75 | 0.1 to 0.5 | – | –
12 | Cc1ncsc1-c1ccc(CNC(=O)[C@@H]2C[C@@H](O)CN2C(=O)[C@@H](NC(=O)C2(F)CC2)C(C)(C)C)c(OCC(=O)N2CCN(CCCC3(Cn4ncc(-c5ccc(N6CCc7cccc(C(=O)Nc8nc9ccccc9s8)c7C6)nc5C(=O)O)c4C)CCCCC3)CC2)c1 [I-173] | 0.1 to 1 | 50 to 75 | > 1 | – | –
13 | Cc1ncsc1-c1ccc([C@H](C)NC(=O)[C@@H]2C[C@@H](O)CN2C(=O)[C@H](c2cc(OC3CCN(CCCS(=O)(=O)NC(=O)c4nc(N5CCc6cccc(C(=O)Nc7nc8ccccc8s7)c6C5)ccc4-c4cnn(CC5CCCCC5)c4C)CC3)no2)C(C)C)cc1 [I-174] | 1 to 3 | < 50 | > 1 | – | –
14 | Cc1ncsc1-c1ccc([C@H](C)NC(=O)[C@@H]2C[C@@H](O)CN2C(=O)C(c2cc(OCC3CCN(CCNC(=O)c4nc(N5CCc6cccc(C(=O)Nc7nc8ccccc8s7)c6C5)ccc4-c4cnn(CC5CCCCC5)c4C)CC3)no2)C(C)C)cc1 (stereo partly drawn) [I-175] | 0.1 to 1 | < 50 | > 1 | – | –
15 | Cc1ncsc1-c1ccc(CNC(=O)[C@@H]2C[C@@H](O)CN2C(=O)[C@@H](c2cc(N3CC4(CN(CCCC(=O)N(C)CC#Cc5ccc(OCCCc6ccc(N7CCc8cccc(C(=O)Nc9nc%10ccccc%10s9)c8C7)nc6C(=O)O)c(F)c5)C4)C3)no2)C(C)C)cc1 [I-180] | > 3 | < 50 | > 1 | – | –
16 | Cc1cc(N(C)c2ccc(-c3cnn(CC4CCCCC4)c3C)c(C(=O)NS(=O)(=O)CCCCCOc3cc(-c4scnc4C)ccc3CNC(=O)[C@@H]3C[C@@H](O)CN3C(=O)[C@@H](NC(=O)C3(F)CC3)C(C)(C)C)n2)nnc1Nc1nc2ccccc2s1 [I-188] | > 3 | 50 to 75 | > 1 | – | –
17 | Cc1ncsc1-c1ccc(CNC(=O)[C@@H]2C[C@@H](O)CN2C(=O)[C@@H](NC(=O)C2(F)CC2)C(C)(C)C)c(OCCCCNC(=O)c2nc(N3CCc4cccc(C(=O)Nc5nc6ccccc6s5)c4C3)ccc2-c2cnn(CC3CCCCC3)c2C)c1 [I-190] | 0.1 to 1 | 50 to 75 | 0.5 to 1 | – | –
18 | Cc1ncsc1-c1ccc(CNC(=O)[C@@H]2C[C@@H](O)CN2C(=O)[C@@H](NC(=O)C2(F)CC2)C(C)(C)C)c(OCCN2CCC(NC(=O)c3nc(N4CCc5cccc(C(=O)Nc6nc7ccccc7s6)c5C4)ccc3-c3cnn(CC4CCCCC4)c3C)CC2)c1 [I-191] | 0.1 to 1 | 50 to 75 | 0.1 to 0.5 | – | –
19 | Cc1ncsc1-c1ccc(CNC(=O)[C@@H]2C[C@@H](O)CN2C(=O)[C@@H](c2cc(N3CC4(CN(C(=O)CCCCC(=O)N(C)CC#Cc5ccc(OCCCc6ccc(N7CCc8cccc(C(=O)Nc9nc%10ccccc%10s9)c8C7)nc6C(=O)O)c(F)c5)C4)C3)no2)C(C)C)cc1 [I-193] | 0.1 to 1 | > 75 | 0.01 to 0.1 | – | –
20 | Cc1ncsc1-c1ccc(CNC(=O)[C@@H]2C[C@@H](O)CN2C(=O)[C@@H](NC(=O)C2(F)CC2)C(C)(C)C)c(OCCCNC(=O)c2nc(N3CCc4cccc(C(=O)Nc5nc6ccccc6s5)c4C3)ccc2-c2cnn(CC3CCCCC3)c2C)c1 [I-200] | 0.1 to 1 | 50 to 75 | 0.1 to 0.5 | – | –
21 | Cc1cc(N(C)c2ccc(-c3cnn(CC4CCCCC4)c3C)c(C(=O)NCCCCCCOc3cc(-c4scnc4C)ccc3CNC(=O)[C@@H]3C[C@@H](O)CN3C(=O)[C@@H](NC(=O)C3(F)CC3)C(C)(C)C)n2)nnc1Nc1nc2ccccc2s1 [I-203] | 0.1 to 1 | < 50 | > 1 | – | –
22 | Cc1ncsc1-c1ccc([C@H](C)NC(=O)[C@@H]2C[C@@H](O)CN2C(=O)[C@H](c2cc(N3CCN(c4ccc(S(=O)(=O)NC(=O)c5nc(N6CCc7cccc(C(=O)Nc8nc9ccccc9s8)c7C6)ccc5-c5cnn(CC6CCCCC6)c5C)cc4)CC3)no2)C(C)C)cc1 [I-213] | 1 to 3 | 50 to 75 | 0.1 to 0.5 | – | –
23 | Cc1ncsc1-c1ccc([C@H](C)NC(=O)[C@@H]2C[C@@H](O)CN2C(=O)[C@@H](NC(=O)CCCCCC(=O)N2CCN(CC[C@H](CSc3ccccc3)Nc3ccc(S(=O)(=O)NC(=O)c4ccc(N5CCC(C)(C)CC5)cc4)cc3S(=O)(=O)C(F)(F)F)CC2)C(C)(C)C)cc1 [I-392] | > 3 | < 50 | > 1 | – | –
